Assay results taken from patent US12345641B2, “Fluorescence quenching immunoassay” (IDEXX Laboratories, Inc., priority 2020, dated 2025).

Legend:
[1] = tested on: α-cortisol antibodies; assay: Fluorescence quenching of cortisol-4-Fl with cortisol antibody (Example 28); format: binding
Procedure: The cortisol-4-FL was combined with various equivalents of various a-cortisol antibodies commercially available from HyTest (of Turku, Finland), Abcam (of Cambridge, United Kingdom), and Bio-Connect BV (Fitzgerald Industries) (of the Netherlands). The fluorescence was measured as a function of the ratio of antibody (Ab) to cortisol-4-FL. The results are depicted in FIG. 21.

[2] = biological target: streptavidin (Streptomyces avidinii, UniProt P22629); assay: Fluorescence of Biotin-F or Biotin-ED in the presence of streptavidin (Example 19); format: binding; conditions: saturation point, 1:1 molar ratio streptavidin to tracer
streptavidin, sequence (P22629 25-183, species assumed): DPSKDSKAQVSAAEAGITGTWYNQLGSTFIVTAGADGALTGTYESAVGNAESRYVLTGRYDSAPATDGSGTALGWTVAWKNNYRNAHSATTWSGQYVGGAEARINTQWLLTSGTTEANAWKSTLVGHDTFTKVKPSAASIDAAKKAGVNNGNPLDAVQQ
Procedure: Biotin-F or Biotin-ED (commercially available from Thermo Scientific of Waltham, MA) was dissolved in DMSO to provide a DMSO solution (8.5 μM). The structure of biotin ED is
The DMSO solution was then diluted with PBS to provide a solution having a Biotin-F or Biotin-ED concentration of 100 nM. 20 μL aliquots of the resulting Biotin-F or Biotin-ED solution in PBS was then added to the wells of a 96 well black assay plate. Solutions of streptavidin in PBS having a streptavidin concentration ranging from 0 to 100 nM were prepared and added (180 μL) to the Biotin-F or Biotin-ED solution in the plate. The plate was incubated for 30 min at room temperature and the fluorescence intensities then recorded.

[3] = tested on: α-Cholic Acid antibody; assay: Fluorescence quenching of CA-Fl with anti-cholic acid antibody in PBS (Example 41); format: binding
Procedure: A working solution of CA-Fl in PBS (100 nM) was prepared. The working solution was then combined with various equivalents of α-Cholic Acid antibody (1:1, v/v) (commercially available from Fitzgerald Industries of the Netherlands). The fluorescence was measured as a function of the ratio of antibody (Ab) to CA-Fl. The results are depicted in FIG. 33. […] The higher the ratio of antibody to CA-Fl tracer, the greater the amount of quenching.

[4] = tested on: anti-cefotaxime polyclonal antibody; assay: Fluorescence of CEF-F with anti-cefotaxime antibody (Example 25); format: binding; conditions: tracer and antibody 200 nM
Procedure: Beta lactam antibiotics conjugated to fluorescein (i.e., AMO-FITC, AMO-F, AMP-F, and CEF-F) in PBS (400 nM, 100 μL) were mixed with either anti-penicillin or anti-cefotaxime polyclonal antibody (400 nM, 100 μL, commercially available from Novus Biologicals, LLC of Centennial, CO) in the absence of and in the presence of free beta-lactam antibiotic (ampicillin (400 nM) was added to AMP-F and cefotaxime (400 nM) was added to CEF-F) in a 96 well black assay plate. […] The solutions were incubated at room temperature for 5 min and the fluorescence intensity measured.

[5] = tested on: Polyclonal anti-melamine antibody (Anti-Mel-Ab); assay: Fluorescence of mixtures of melamine fluorescent tracers and anti-melamine antibody (Example 15); format: binding; conditions: tracer 30 nM, Anti-Mel-Ab 0 to 300 nM, PBS, ex 490 nm/em 520 nm
Procedure: Various substituted fluorescent tracers wherein melamine is conjugated to fluorescein were dissolved in DMSO (1 mM) and diluted in phosphate buffered saline (PBS) (pH=7.3) to provide a melamine tracer solution (1.2 μM). The following melamine tracers were used:
Polyclonal anti-melamine antibody (Anti-Mel-Ab, 4.65 mg/ml, commercially available from Meridian Life Sciences Inc. (Biodesign) of Memphis, TN) was diluted in PBS and serially diluted to provide Anti-Mel-Ab solutions having Anti-Mel-Ab concentrations ranging from 0 to 300 nM. The melamine tracer solutions (5 μL) were mixed with each Anti-Mel-Ab solution (195 μl) in a 96 well black assay plate with non-binding surface (commercially available from Corning Inc. of Corning, NY) to provide solutions having different molar ratios of the Anti-Mel-Ab to the melamine tracer. The concentration of the melamine tracer was 30 nM. The plate was gently shaken for 30 min at room temperature. The fluorescence intensities of each solution was then measured using a fluorescence plate reader (Synergy 4 Microplate Reader, commercially available from BioTek Instruments, Inc. of Winooski, VT) using an excitation wavelength of 490 nm and reading the emission at 520 nm.
Unless otherwise indicated, an excitation wavelength of 490 nm and reading the emission at 520 nm were used throughout the examples. […]

[6] = tested on: Anti-Mel-Ab; assay: Fluorescence of Mel-F and Anti-Mel-Ab in PBS, serum and diluted serum with and without melamine (Example 17); format: binding; conditions: each solution: PBS, canine serum, serum diluted 1 in 10
Procedure: To a solution of Mel-F in PBS (1 μM, 6 μL) and to a mixture of Mel-F in PBS (1 μM, 6 μL) and Anti-Mel-Ab (1 μM, 6 μL) in the absence of and in the presence of melamine (2 μM, 6 μL) was added PBS, serum, or diluted serum (i.e., serum diluted 1 in 10 with PBS) to provide a final volume of 200 μL.

[7] = tested on: anti-SDMA antibody; assay: SDMA dose response with SDMA tracer/SDMA antibody solution (Example 34); format: binding; conditions: SDMA 0 to 100 μg/dL added to SDMA-DFF, SDMA-DCF or SDMA-Fl tracer/antibody solution
Procedure: Solutions of various SDMA tracers (SDMA-Fl, SDMA-DFF, and SDMA-DCF) in PBS (with 0.1% Tween) were prepared at a concentrations 400 nM. Solutions of anti-SDMA antibody or anti-SDMA antibody conjugated to BHQ10 (4 eq.) in PBS were prepared at concentrations of 400 and 800 nM, respectively.
SDMA standard solutions were prepared by serially diluting SDMA in PBS (with 0.1% Tween) to provide a final SDMA concentration of 100, 50, 25, 12,5, 6.26, 0 μg/dL.
50 μl of each SDMA standard solution was added to the well of a 96-well UV transparent plate. 50 μl of the SDMA tracer/SDMA antibody solution was then added to each well, the resulting solution mixed well by shaking, and incubated at room temperature for 30 min.

[8] = tested on: anti-T4-Mab; assay: Fluorescence of T3 tracers and anti-T4-Mab in the presence of T4 (Example 20); format: binding
Procedure: Similar solutions were prepared and the fluorescence measured except that the T3-F was replaced with T3-5-F, T3-E-F and T3-FITC.

[9] = tested on: anti-T4 antibody; assay: Maximum percentage fluorescence quenching of T2-F, T3-F, T4-F by anti-T4 antibody with and without quencher label (Example 27 table); format: binding
Procedure: In another experiment, tracer T2-F, T3-F, or T4-F was dissolved in DMSO to provide a DMSO solution at a tracer concentration of 1 mM. The DMSO solution was then diluted with phosphate buffered saline (“PBS”) to provide a stock solution of each tracer at a concentration of 10 μM. Monoclonal anti-T4-Mab or anti-T4-Mab conjugated to a quencher (Cy3-Ab, IRdyeQC1-Ab, Cy5-Ab, BHQ1-Ab) were serially diluted in PBS to provide solutions having an Anti-T4-Mab or anti-T4-Mab conjugated to quencher at concentration ranging from 0 to 2 μM. In a 96 well black assay plate containing the serially diluted Anti-T4-Mab or anti-T4-Mab conjugated to quencher (95 μL) was added the tracer T2-F, T3-F, or T4-F solution (5 μL), mixed well, and incubated for 30 min and the fluorescence intensities then recorded at an excitation wavelength of 485 nm and an emission wavelength of 520 nm. The results of maximum percentage fluorescence quenching for different tracers and quencher-modified antibodies are provided in the following Table: […]

[10] = tested on: anti-T4-Mab; assay: Fluorescence of T3-F and anti-T4-Mab after lyophilization (Example 22); conditions: T3-F and/or anti-T4-Mab lyophilized to dryness, reconstituted in PBS or charcoal treated horse serum
Procedure: T3-F (1.7 mg) was dissolved in 0.85 ml DMSO to provide a stock solution (2 mM). The T3-F stock solution was then diluted in PBS to provide a 1 μM working solution that was separated into two vials (1 mL each). To the first vial was added PBS (9 mL) and to the second vial was added PBS (8.9 mL) plus anti-T4 Mab (15 μM, 0.1 mL). The vials were mixed well and incubated for 30 min at room temperature. The fluorescence intensities for each solution (200 μL) was determined. Aliquots of each solution (200 μL) were then placed into wells of a 96 well black assay plate and lyophilized to dryness. To the dried residues was added 200 μL PBS, horse serum that had been treated with charcoal (i.e., the serum was “charcoal stripped” by dialyzing the serum in PBS buffer containing charcoal for at least three buffer changes to remove small molecules from the serum), or horse serum that had been treated with charcoal containing T4 (10 μg/dL) and the plate incubated for 30 min at room temperature. Fluorescence intensities were then recorded again.

Question: With `C[C@]12CCC(=NOCC(=O)NCc3c(O)ccc4c(-c5ccccc5C(=O)O)c5ccc(=O)cc-5oc34)C=C1CCC1C2[C@@H](O)C[C@@]2(C)C1CC[C@]2(O)C(=O)CO` (stereo in doubt) [Cortisol-4-Fl] as the compound, how does the “fluorescence quenching on complex formation with cortisol antibody” value [1] read?
Answer: quenched

Question: Which quenching efficiency [2] does the source give for `O=C(CCCCC1SCC2NC(=O)NC21)NCc1c(O)ccc2c(-c3ccccc3C(=O)O)c3ccc(=O)cc-3oc12` (stereo not shown) [Biotin-F, Biotin-Fluorescein] here?
Answer: 70%

Question: With `C[C@H](CCC(=O)NCc1c(O)ccc2c(-c3ccccc3C(=O)O)c3ccc(=O)cc-3oc12)[C@H]1CC[C@H]2[C@@H]3[C@H](O)C[C@@H]4C[C@H](O)CC[C@]4(C)[C@H]3C[C@H](O)[C@]12C` [CA-Fl, Cholic Acid-Fluorescein Conjugate] as the compound, how does the “fluorescence quenching on complex formation with α-Cholic Acid antibody” value [3] read?
Answer: quenched

Question: For `CO/N=C(\C(=O)NC1C(=O)N2C(C(=O)NCc3c(O)ccc4c(-c5ccccc5C(=O)O)c5ccc(=O)cc-5oc34)=C(COC(C)=O)CSC12)c1csc(N)n1` (stereo not shown) [CEF-F, Cefotaxime-Fluorescein], which “fluorescence quenching by anti-cefotaxime antibody” value [4] is on record?
Answer: quenched

Question: How did the “degree of fluorescence quenching compared to the other melamine tracers” value [5] turn out when `Nc1nc(N)nc(NCc2c(O)ccc3c(-c4ccccc4C(=O)O)c4ccc(=O)cc-4oc23)n1` [Mel-F, Melamine-Fluorescein] was run?
Answer: highest degree of quenching

Question: What about the “fluorescence of Mel-F after quenching by Anti-Mel-Ab relative to original value” [6] of the same compound?
Answer: about one-half of the original value

Question: Which “fluorescence intensity as a function of SDMA concentration” value [7] does the source give for `C/N=C(\NC)NCCC[C@H](N)C(=O)O` [SDMA, symmetrical dimethylarginine] here?
Answer: a dose response is observed

Question: With `O=C(O)c1ccccc1-c1c2ccc(=O)cc-2oc2c(CNC(Cc3cc(I)c(Oc4ccc(O)c(I)c4)c(I)c3)C(=O)O)c(O)ccc12` (stereo not shown) [T3-F] as the compound, how does the “fluorescence quenching by anti-T4-Mab” value ([8]; PBS, tracer and antibody equimolar) read?
Answer: quenched

Question: What about the “time to stable fluorescence signal” value ([8]; quenching by anti-T4-Mab and recovery after addition of T4) of the same compound?
Answer: ≤ 10 min

Question: And the “Percentage of fluorescence quenching, BHQ1-Ab” value ([9]; anti-T4-Mab conjugated to BHQ1)?
Answer: 30%

Question: What about the “Percentage of fluorescence quenching, Cy5-Ab” value ([9]; anti-T4-Mab conjugated to Cy5) of the same compound?
Answer: 40%

Question: What about the “Percentage of fluorescence quenching, Ab” value ([9]; anti-T4-Mab without quencher) of the same compound?
Answer: 30%

Question: What about the “assay performance after lyophilization of reagents” value [10] of the same compound?
Answer: effective
